Values of other authors as cited in publication PMC10628858, “Investigation of new ferrocenyl-artesunate derivatives as antiparasitics” (Dalton Transactions (Cambridge, England : 2003), 2023).

Tests used:
[1] = system: P. falciparum 3D7 (chloroquine sensitive); design: method as in doi:10.1016/j.jorganchem.2023.122633; details: chloroquine sensitive strain; cited from earlier work
[2] = system: P. falciparum Dd2 (chloroquine resistant); design: method as in doi:10.1016/j.jorganchem.2023.122633; details: chloroquine resistant strain; cited from earlier work

Compound: CC1CCC2C(C)C(OC(=O)CCC(=O)NC[c-]3cccc3)OC3OC4(C)CCC1C32OO4.[Fe+2].c1cc[cH-]c1 (centres unmarked) [Compound C4]
- Activity against P. falciparum 3D7 [1]: 6.1 nM
- Activity against P. falciparum Dd2 [2]: 3.0 nM
